The source of these data is patent US20250057958A1, “CYTOTOXICITY TARGETING CHIMERAS FOR CCR2-EXPRESSING CELLS” (GLAXOSMITHKLINE INTELLECTUAL PROPERTY DEVELOPMENT LIMITED, priority 2022, published 2025).

Structures are written as SMILES. Some results are limits rather than exact numbers.

Test [1] addresses human alpha1 nicotinic acetylcholine (nACh) receptor (Homo sapiens, UniProt P02708+Q07001). In words: Nicotinic acetylcholine receptor antagonism assay (IONFlux automated patch clamp). As to conditions: for Emax at 33.3 µM: maximum percentage antagonism at highest concentration tested, read-out: Maximum Response (%); for IC50: nAChR antagonism, stimulated with ACh, average if more than one run. The test is classed as cell-based. The text has this:
Cells expressing human alpha1 nicotinic acetylcholine (nACh) receptor (nAChR) were washed and dissociated using Trypsin containing buffer. Cells were then washed and seeded at a density of 3-5 million cells/mL and allowed to grow for 3 days. […] The receptor was then stimulated via addition of acetylcholine (ACh) and activation of the receptor was monitored via the IONFlux automated patch clamp system. IonFlux Data Analyzer software was utilized to perform leak subtraction and measure (min) peak current amplitude.
Data processing: (1) Current values recorded for vehicle only applications in individual traps/patterns were subtracted from corresponding current amplitude values for control, test article and control+test article. (2) Control response was calculated as % of the average response of the 3rd out of total 3 ACh (10 mM) applications alone. In rare situations, if the 3rd ACh response was obscured due to technical artifacts, the 2nd and/or 1st ACh (10 mM) application was considered as control. The peak current amplitude generated in the presence of each test article concentration was then used to calculate the % inhibition as compared to control response (10 mM ACh alone). These estimates were further corrected for vehicle response and run down corrected by normalizing with time matched control responses (10 mM ACh alone). The corrected percentages were then fit with a non-linear function in GraphPad Prism 6 (or later versions) to determine the IC50.
Exclusion criteria: (i) any n's with poor recording quality, (ii) control current amplitude <500 pA or (iii) significant outliers, as determined by the Grubbs' test.
ARMs compounds of Formula (I) of the invention were tested for antagonism of the nAChR in the above assay in […] experimental runs and the results are shown in Table 5 below. Antagonistic activity of the compounds of Formula (I) of the invention is reported as an IC50 value (half maximal inhibitory concentration) and the maximum percentage antagonism observed at the highest concentration of compound of Formula (I) tested, as indicated in Table 5. For compounds tested in more than one experimental run, the IC50 value is reported as an average.

The subject of test [2] is CCR2 expressing cells (CD11b+Ly6c+Hi monocytes). In words: In vivo depletion assay (flow cytometry of peripheral blood). Also on record: species or system human CCR2 (hCCR2) knock-in mice. Conditions: IV bolus 0.1 mpk compound + 10 mpk anti-cotinine antibody (mouse IgG2a Fc), 48 hours. The protocol: Human CCR2 (hCCR2) knock-in mice (C57 background) were dosed intravenously with a PBS solution containing a compound of Formula (I) to measure depletion of CCR2 expressing cells in peripheral blood. Peripheral blood from IV dosed mice was also analyzed to determine PK properties of the compounds of Formula (I).
Formulations preparation: On the day of experiment, the stock solution of the compound of Formula (I) was removed from storage at −20° C. and thawed at room temperature. Anti-cotinine antibody having a heavy chain sequence of SEQ ID NO: 13 and a light chain sequence of SEQ ID NO: 14 (rabbit variable region sequence with mouse IgG2a Fc domain), if required was removed from storage at −80° C. and thawed at room temperature. Antibody vials were immediately transferred into wet ice after thawing. Compounds of Formula (I) were further diluted in DMSO as per experimental requirements.
Formulation composition: The formulation composition was Saline: DMSO: PBS. Saline was added based on the quantity required and then stock solution of the compound of Formula (1) prepared in DMSO, followed by addition of antibody in PBS. Formulations were incubated at room temperature for 30 minutes before administration to the mouse. DMSO was used at 1 to 2% (v/v) in the final formulation.
Administration to Animal: Solution formulation of antibody and compound of Formula (I) was injected (bolus injection) to the restrained mouse in the right/left lateral tail vein. Animals were dosed with 0.1 milligram per kilogram (mpk) of the compound of Formula (I) and 10 mpk of the anti-cotinine antibody.
Terminal bleeding at end of experiment (48 hr): Approximately 250 μL of blood in K2EDTA tube and approximately 250 μL of blood in SST (serum separation tube) was collected from each mouse through retro-orbital bleeding under deep isoflurane anesthesia. After bleeding, each mouse was sacrificed by cervical dislocation. The blood distribution at termination was determined as follows: • For PK: 50 μL of K2EDTA blood was transferred to another tube for PK • Flow cytometry: Remaining blood (˜200 μL) was used for flow cytometry analysis. • For serum collection: serum separator tubes (BD) were centrifuged at 4° C., 5000 rpm for 15 minutes. Approximately 100 μL serum was separated and stored at −80° C. for further usage. • Blood drug concentration: Samples collected at the various timepoints (0.25 hr, 2 hr, 24 and 48 hr) were analyzed to determine blood drug concentration.
Flow cytometry analysis: CCR2 depletion in peripheral blood was determined by flow cytometry. Briefly, peripheral blood was collected from all animals at the end of study termination and processed. […]
Percent depletion of CD11b+Ly6c+Hi cells and CCR2 expression for the different treatment groups was determined. […]

human alpha1 nicotinic acetylcholine (nACh) receptor, sequence (P02708 21-457): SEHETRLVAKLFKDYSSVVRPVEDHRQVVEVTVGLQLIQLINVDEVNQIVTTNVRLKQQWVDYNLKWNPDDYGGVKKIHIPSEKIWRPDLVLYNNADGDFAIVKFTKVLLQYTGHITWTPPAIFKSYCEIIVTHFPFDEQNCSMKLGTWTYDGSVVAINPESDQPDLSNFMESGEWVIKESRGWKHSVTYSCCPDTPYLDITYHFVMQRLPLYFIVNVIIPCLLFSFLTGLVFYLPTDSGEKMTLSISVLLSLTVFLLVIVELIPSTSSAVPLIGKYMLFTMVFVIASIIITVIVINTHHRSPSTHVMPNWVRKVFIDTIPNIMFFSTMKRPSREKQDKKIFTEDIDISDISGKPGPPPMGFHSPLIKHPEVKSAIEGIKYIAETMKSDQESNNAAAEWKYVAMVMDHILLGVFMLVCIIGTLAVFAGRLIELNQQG
human alpha1 nicotinic acetylcholine (nACh) receptor, sequence (P11230 24-501 partner): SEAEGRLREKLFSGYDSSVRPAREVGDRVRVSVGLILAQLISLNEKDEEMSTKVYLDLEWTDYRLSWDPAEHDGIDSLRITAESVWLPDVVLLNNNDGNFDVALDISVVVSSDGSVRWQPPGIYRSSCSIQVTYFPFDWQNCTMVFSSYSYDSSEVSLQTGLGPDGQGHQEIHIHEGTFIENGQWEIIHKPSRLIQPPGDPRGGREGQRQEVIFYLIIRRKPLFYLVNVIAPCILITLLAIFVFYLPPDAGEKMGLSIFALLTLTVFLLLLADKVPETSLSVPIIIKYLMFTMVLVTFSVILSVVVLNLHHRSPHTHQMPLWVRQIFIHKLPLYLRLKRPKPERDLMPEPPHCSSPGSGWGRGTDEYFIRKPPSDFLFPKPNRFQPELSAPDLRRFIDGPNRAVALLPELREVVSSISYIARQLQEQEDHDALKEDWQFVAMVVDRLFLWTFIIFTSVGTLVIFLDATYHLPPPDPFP
human alpha1 nicotinic acetylcholine (nACh) receptor, sequence (Q07001 22-517): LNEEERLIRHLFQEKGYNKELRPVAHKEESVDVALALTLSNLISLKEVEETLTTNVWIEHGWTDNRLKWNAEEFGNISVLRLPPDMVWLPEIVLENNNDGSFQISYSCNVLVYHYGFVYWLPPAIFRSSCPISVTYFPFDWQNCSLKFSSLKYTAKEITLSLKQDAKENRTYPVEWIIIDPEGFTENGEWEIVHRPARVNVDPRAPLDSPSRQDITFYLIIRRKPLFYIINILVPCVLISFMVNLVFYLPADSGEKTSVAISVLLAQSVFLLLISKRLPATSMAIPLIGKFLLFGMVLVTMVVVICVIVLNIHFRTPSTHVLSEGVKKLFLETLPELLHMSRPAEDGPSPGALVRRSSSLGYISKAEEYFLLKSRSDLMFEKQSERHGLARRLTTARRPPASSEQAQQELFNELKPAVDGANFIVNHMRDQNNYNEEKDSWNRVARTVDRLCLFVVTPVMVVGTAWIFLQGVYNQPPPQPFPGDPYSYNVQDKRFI

Turning to `CC(=O)N[C@@H]1C[C@H](NC(C)(C)C)CC[C@@H]1N1CC[C@H](Nc2nc([C@H]3CC[C@@H](NC(=O)[C@H]4CC[C@H](NC(=O)CCCO[C@H]5CC[C@H](OCCNC(=O)[C@H]6CC(=O)N(C)[C@@H]6c6cccnc6)CC5)CC4)CC3)nc3ccc(C(F)(F)F)cc23)C1=O` [Example 10, (2S,3S)-N-(2-(((1R,4S)-4-(4-(((1R,4R)-4-(((1R,4S)-4-(4-(((S)-1-((1S,2R,4R)-2-Acetamido-4-(tert-butylamino)cyclohexyl)-2-oxopyrrolidin-3-yl)amino)-6-(trifluoromethyl)quinazolin-2-yl)cyclohexyl)carbamoyl)cyclohexyl)amino)-4-oxobutoxy)cyclohexyl)oxy)ethyl)-1-methyl-5-oxo-2-(pyridin-3-yl)pyrrolidine-3-carboxamide], in test [1], the Emax at 33.3 µM amounted to 28% and the IC50 is over 33.3 µM. Besides, the “% Depletion of CCR2 expressing cells” value in test [2] amounted to 89.71%.

Consider `CC(=O)N[C@@H]1C[C@H](NC(C)(C)C)CC[C@@H]1N1CC[C@H](Nc2nc([C@H]3CC[C@H](NC(=O)[C@H]4CC[C@H](NC(=O)CCCO[C@H]5CC[C@H](OCCNC(=O)[C@H]6CC(=O)N(C)[C@@H]6c6cccnc6)CC5)CC4)CC3)nc3ccc(C(F)(F)F)cc23)C1=O` [Example 11, (2S,3S)-N-(2-(((1R,4S)-4-(4-(((1S,4R)-4-(((1S,4R)-4-(4-(((S)-1-((1S,2R,4R)-2-Acetamido-4-(tert-butylamino)cyclohexyl)-2-oxopyrrolidin-3-yl)amino)-6-(trifluoromethyl)quinazolin-2-yl)cyclohexyl)carbamoyl)cyclohexyl)amino)-4-oxobutoxy)cyclohexyl)oxy)ethyl)-1-methyl-5-oxo-2-(pyridin-3-yl)pyrrolidine-3-carboxamide], for which, in test [1], the Emax at 33.3 µM came out at 47% and the IC50 was over 33.3 µM. Also, in test [2], the “% Depletion of CCR2 expressing cells” value is 95.41%.

`CC(=O)N[C@@H]1C[C@H](NC(C)(C)C)CC[C@@H]1N1CC[C@H](Nc2nc(CCCCNC(=O)[C@H]3CC[C@H](NC(=O)CCCO[C@H]4CC[C@H](OCCNC(=O)[C@H]5CC(=O)N(C)[C@@H]5c5cccnc5)CC4)CC3)nc3ccc(C(F)(F)F)cc23)C1=O` [Example 3, (2S,3S)-N-(2-(((1R,4S)-4-(4-(((1S,4R)-4-((4-(4-(((S)-1-((1S,2R,4R)-2-Acetamido-4-(tert-butylamino)cyclohexyl)-2-oxopyrrolidin-3-yl)amino)-6-(trifluoromethyl)quinazolin-2-yl)butyl)carbamoyl)cyclohexyl)amino)-4-oxobutoxy)cyclohexyl)oxy)ethyl)-1-methyl-5-oxo-2-(pyridin-3-yl)pyrrolidine-3-carboxamide]: in test [1], the Emax at 33.3 µM is 38% and the IC50 is over 33.3 µM. Further, the “% Depletion of CCR2 expressing cells” value in test [2] amounted to 84%.
